Data: patent US8828678B2, “Self-immolative probes for enzyme activity detection” (Enzo Life Sciences, Inc., priority 2010, dated 2014)

Assay: Chemical reduction of CD-8 and enzymatic (HRP) luminescence testing of the reduction product
Conditions: 200 μM CD-8, 1 mM sodium hydrosulfite, 1 hour room temperature, then H2O2, 4-iodophenol
Procedure: 100 μl of 200 μM CD-8 (dissolved in 1×PBS buffer) with (1 mM) or without sodium hydrosulfite was incubated in a 96 black microplate (Greiner®) at room temperature for 1 hour. Also included was a positive control of 100 μl of 50 μM of isoluminol dissolved in 1×PBS buffer. A 4:1 volumetric mixture (1.25 μL) of stabilized H2O2 (Roche Diagnotics GmbH: Reference number: 11 582 950 001, component 2) and 200 mM of 4-idophenol was then added. Before adding horseradish peroxidase (HRP), the background luminescence was recorded; after adding 2 μL of 50 μM HRP, the luminescence was immediately recorded on a Biotek® plate reader.

Question: Which “luminescence / release of isoluminol after sodium hydrosulfite” value does the source give for `O=C(Nc1ccc2c(=O)[nH][nH]c(=O)c2c1)OCc1ccc([N+](=O)[O-])cc1` [CD-8] here?
Answer: The value was “triggering the self-immolative release of isoluminol”.
